Source: patent US20240252677A1, “ONE-COMPONENT DELIVERY SYSTEM FOR NUCLEIC ACIDS” (The Trustees of the University of Pennsylvania, priority 2021, published 2024)

Assays:
HEK293T cells = test: In vitro Luc-mRNA transfection, luciferase luminescence expression in HEK293T cells; format: cell-based, human; parameters: unit not given here; settings: n=3
Experimental: In Vitro Transfection Activity of DNPs in Human Embrionic Kidney (HEK) 293T Cells: HEK293T cells were seeded into 96-well plates (20,000 cells/well/200 μL) and cultured for 24 h at 37° C. in 5% CO2 complete cell culture media. Screening experiments were performed with nonoptimized DNPs containing naked nucleoside-modified mRNA (Karikó, et al., Immunity 2005, 23, 165-175; Pardi, et al., Methods Mol. Biol. 2013, 969, 29-42), of molar mass 664,341 encoding firefly luciferase (mRNA-Luc). A constant concentration of mRNA-Luc of 125 ng/well was used. The transIT (TransIT-mRNA transfection Kit from Mirus Bio) and MC3-based LNPs (MC3: DLin-MC3-DMA, which is the FDA approved LNP for mRNA delivery) were used as positive controls for cell transfection at a concentration of mRNA-Luc of 125 ng/well, identical to that of the tested DNPs. Subsequently cells were cultured for 24 h, the medium was aspirated under reduced pressure by a glass pipette and cells were lysed with 30 μL/well of cell culture lysis reagent (Promega). The luminescence intensity corresponding to the luciferase protein expressed was characterized and analyzed.
In vitro mRNA Delivery: Human embryonic kidney (HEK) 293T cells (American Type Culture Collection) were cultured in Dulbecco's modified Eagle's medium (DMEM) supplemented with 10% inactivated fetal bovine serum (FBS) (Gemini Bio-Products), 2 mM L-glutamine and 100 U/mL penicillin/streptomycin (Life Technologies) (complete medium). For in vitro screening experiments, HEK293T cells were seeded into 96-well plates (20,000 cells/well/200 μL) and cultured for 24 h in at 37° C. and 5% CO2 in complete media. Cell were transfected with IAJDs with encapsulated naked nucleoside-modified mRNA encoding firefly luciferase (mRNA-Luc) with fixed concentration of mRNA-Luc, 125 ng per well. The transIT (TransIT®-mRNA Transfection Kit, Mirus Bio) was used as a positive control for cell transfection, accordingly per manufacturer protocol and added to cells at the concentration of mRNA-Luc, 125 ng per well, the same as for tested particles. Cells were further cultured for 24 h, then medium was aspirated, and cells were lysed with 30 μL/well of cell culture lysis reagent (Promega). For the characterization of luminescence intensity, 2.5 μL of the lysed cells was mixed with 10 μL of luciferase assay substrate and luminescence was analyzed using a MiniLumat LB 9506 luminometer (Berthold/EG&G; Wallac).
Luminescence characterization for in vitro transfection experiments was performed by determining the luminescence intensity for in vitro Luc-mRNA transfection experiments using a MiniLumat LB 9506 luminometer (Berthold/EG&G; Wallac).
For in vitro Luc-mRNA transfection screening experiments, human embryonic kidney 293 cells (HEK 293) were seeded into 96-well plates (20,000 cells/well/200 μL) and cultured for 18-20 hours at 37° C., 5% CO2 in complete Dulbecco's modified Eagle's medium (DMEM) supplemented with 2 mM L-glutamine (Life Technologies), 100 U/mL penicillin/streptomycin (Invitrogen) and 10% fetal bovine serum (FBS, Gemini Bio-Products). Cells were transfected with DNPs with encapsulated naked nucleoside-modified mRNA encoding firefly luciferase (Luc-mRNA) at constant concentration of Luc-mRNA, 125 ng per well. Luc-mRNA complexed with TransIT (TransIT®-mRNA Transfection Kit, Mirus Bio) or encapsulated in FDA approved MC3-based LNPs were used as positive controls for cell transfection, at the concentration of Luc-mRNA of 125 ng per well, the same as for tested DNPs. After transfection cells were further cultured at 37° C., 5% CO2 for 18-20 hours, then medium was aspirated and cells were lysed with luciferase cell culture lysis reagent (30 μL/well) (Promega, Madison, WI). […]

lung = test: In vivo mRNA delivery, IVIS imaging of organs: lung; parameters: species or system mice; key to Organs with luminescence: lung: strong: Strong meant the luminescence intensity in that organ was relatively high, compared to other organs; weak: Weak meant the luminescence intensity in that organ was relatively low, compared to other organs; settings: for Organs with luminescence: lung (weak/strong): Table 14; for Organs with luminescence: lung: Table 17, mice, IVIS, 4-6 h after injection, intensity relative to other organs
Experimental: (§1) The exposure time was 1 min.
(§2) Tissue luminescence signal was measured on the IVIS imaging system using an exposure time of 60 seconds using medium binning (binning=8) to ensure that the signal obtained was within operative detection range. […] Bioluminescence imaging was performed as described above.
(§3) Tissue luminescence signal was measured on the IVIS imaging system using a certain exposure time (60, 30 or 15 seconds) and medium binning (binning=8) to ensure that the signal obtained was within operative detection range.

spleen = test: In vivo mRNA delivery, IVIS imaging of organs: spleen; parameters: species or system mice; key to Organs with luminescence: spleen: strong: Strong meant the luminescence intensity in that organ was relatively high, compared to other organs; weak: Weak meant the luminescence intensity in that organ was relatively low, compared to other organs; settings: for Organs with luminescence: spleen (weak/strong): Table 14; for Organs with luminescence: spleen: Table 17, mice, IVIS, 4-6 h after injection, intensity relative to other organs
Experimental: as §1, §2, §3

[1] = pKa measurements of individual IAJD molecules by titration; format: physicochemical; settings: ethanol saturated with NaCl, titrated with 0.1 M aqueous HCl, titration
Experimental: pKa measurements of individual IAJD Molecules was performed as follows. IAJD Molecules were first dissolved in ethanol (Sat. with NaCl) at a concentration of 1.5 mg/mL and the solution volume was 3 mL.
Then 0.1 M HCl solution was added to the above ethanol solution with an increment of 7.5 μL. The resulting pH after each addition of HCl solution was measured by an Thermo Scientific Orion Star A121 meter with Thermo Scientific Orion 8220BNWP pH probe. pKa was determined using the half equivalence point titration.

[2] = HEK293T cells, Luc-mRNA 125 ng/well
[3] = Table 15, individual IAJD molecule
[4] = Table 16, HEK 293T cells, 125 ng/well

Structure (SMILES)	Luminescence (HEK293T cells; [2])	Organs with luminescence: lung (weak/strong) (lung; imaging 5 h after injection)	Organs with luminescence: spleen (weak/strong) (spleen; imaging 5 h after injection)	pKa [1, 3]	Organs with luminescence: lung (weak/strong) (lung; imaging 6 h after injection)	Organs with luminescence: spleen (weak/strong) (spleen; imaging 6 h after injection)	Luminescence (HEK293T cells; [4])	Organs with luminescence: lung (lung)	Organs with luminescence: spleen (spleen)	pKa ([1]; individual IAJD molecules)
CCCCC(CC)COc1cc(COC(=O)CCCN2CCN(C)CC2)cc(OCC(CC)CCCC)c1 (stereo not drawn) [IAJD 76, 3,5-Bis((2-ethylhexyl)oxy)benzyl 4-(4-methylpiperazin-1-yl)butanoate]	17	Lung (weak),	spleen (strong)	6.28						
CCCCC(CC)COc1cc(COC(=O)CCCN2CCN(CCO)CC2)cc(OCC(CC)CCCC)c1OCC(CC)CCCC (stereo not drawn) [IAJD 97, 3,4,5-Tris((2-ethylhexyl)oxy)benzyl 4-(4-(2-hydroxyethyl)piperazin-1-yl)butanoate]	342,016	Lung (weak),	spleen (strong)	6.46						
CCCCCCCCCCCCOCC(COCCCCCCCCCCCC)(COCCCCCCCCCCCC)COC(=O)CCCN1CCN(CCO)CC1 [IAJD 83, 3-(Dodecyloxy)-2,2-bis((dodecyloxy)methyl)propyl 4-(4-(2-hydroxyethyl)piperazin-1-yl)butanoate]	68,691	Lung (weak),	spleen (strong)	6.3						
CCCCCCCOC(=O)CCCCOc1cc(COC(=O)CCCN2CCN(C)CC2)cc(OCCCCC(=O)OCCCCCCC)c1 [IAJD 85, Diheptyl 5,5′-((5-(((4-(4-methylpiperazin-1-yl)butanoyl)oxy)methyl)-1,3-phenylene)bis(oxy)) dipentanoate]	47,369	Lung (weak),	spleen (strong)	6.21						
CCCCCCCCCCCCCCCCCCOc1cc(COC(=O)CCCN2CCN(C)CC2)cc(OCCCCCCCCCCCCCCCCCC)c1 [IAJD 98, 3,5-Bis(octadecyloxy)benzyl 4-(4-methylpiperazin-1-yl)butanoate]	22,209			6.25	Lung (weak),	spleen (strong)				
CCCCCCCCCCCOc1cc(COC(=O)c2cc(OCCOCCOCCCC(=O)CCCN3CCCCC3)c(OCCOCCOCCOCc3ccccc3)c(OCCOCCOCCOC(=O)CCCN3CCCCC3)c2)cc(OCC(CC)CCCC)c1 (stereo not drawn) [IAJD 155]							74	Lung (strong),	spleen (weak)	7.4
CCCCCCCCCCOc1cc(COC(=O)CCCN2CCN(CCO)CC2)cc(OCCCCCCCCCC)c1 [IAJD 91, 3,5-Bis(decyloxy)benzyl 4-(4-(2-hydroxyethyl)piperazin-1-yl)butanoate]	65,255			6.48	Lung (weak),	spleen (strong)				
CCCCCCCCCCCCOc1cc(COC(=O)CCN2CCN(C)CC2)cc(OCCCCCCCCCCCC)c1 [IAJD 84, 3,5-Bis(dodecyloxy)benzyl 3-(4-methylpiperazin-1-yl)propanoate]	205	Lung (weak),	spleen (strong)	6.19						
CCCCCCCCOc1cc(COC(=O)CCCN2CCN(C)CC2)cc(OCCCCCCCC)c1 [IAJD 88, 3,5-Bis(octyloxy)benzyl 4-(4-methylpiperazin-1-yl)butanoate]	17			6.28	Lung (weak),	spleen (strong)				
CCCCCCCCCCCCCCCCOc1cc(COC(=O)CCCN2CCN(C)CC2)cc(OCCCCCCCCCCCCCCCC)c1 [IAJD 75, 3,5-Bis(hexadecyloxy)benzyl 4-(4-methylpiperazin-1-yl)butanoate]	68,572	Lung (weak),	spleen (strong)	6.22						
CCCCC(CC)COc1cc(COC(=O)CCCN2CCN(CCO)CC2)cc(OCC(CC)CCCC)c1 (stereo not drawn) [IAJD 87, 3,5-Bis((2-ethylhexyl)oxy)benzyl 4-(4-(2-hydroxyethyl)piperazin-1-yl)butanoate]	33			6.49	Lung (weak),	spleen (strong)				
CCCCCCCCCCCCCCCCCCOc1cc(COC(=O)CCCN2CCN(CCO)CC2)cc(OCCCCCCCCCCCCCCCCCC)c1 [IAJD 99, 3,5-Bis(octadecyloxy)benzyl 4-(4-(2-hydroxyethyl)piperazin-1-yl)butanoate]	87,433			6.31	Lung (weak),	spleen (strong)				
CCCCCCCCCCCCCCOc1cc(CNC(=O)CCCN2CCN(C)CC2)cc(OCCCCCCCCCCC)c1 [IAJD 133, 4-(4-Methylpiperazin-1-yl)-N-(3-(tetradecyloxy)-5-(undecyloxy)benzyl)butanamide]							107,307	Lung (strong),	spleen (weak)	6.57
CCCCC(CC)COc1cc(COC(=O)CCCN2CCN(C)CC2)cc(OCC(CC)CCCC)c1OCC(CC)CCCC (stereo not drawn) [IAJD 96, 3,4,5-Tris((2-ethylhexyl)oxy)benzyl 4-(4-methylpiperazin-1-yl)butanoate]	22,799	Lung (weak),	spleen (strong)	6.32						
CCCCCCCCOc1cc(COC(=O)CCCN2CCN(CCO)CC2)cc(OCCCCCCCC)c1 [IAJD 89]	55			6.45	Lung (weak),	spleen (strong)				
